# From patent publication US8859225B2, “Systems and methods of voltage-gated ion channel assays” (The Charles Stark Draper Laboratory, Inc., priority 2006, dated 2014)
# Test system: cardiac cell potassium channels
# Assay: potassium ion-selective optical ion sensor fluorescence assay of electrically paced cardiac myocyte cells (hERG screening)
# Format: cell-based
# Details: 2.0 μM Haloperidol; myocyte cells paced at 1.0 Hz; FIG. 10D in comparison to FIG. 10B
# From the text: In one particular example, a cell assay system built in accordance with principles of the invention can be used to conduct hERG screening assays. The hERG gene regulates the activity of potassium ion channels in cardiac myocyte cells. In a functioning heart, electrical voltages are generated by modified myocytes in the sinoatrial and atrioventricular nodes (pacemaking nodes). Such voltages are propagated through the heart by the action of various voltage-gated ion channels that alter the voltage gradients across cardiac cell membranes by exchanging sodium, calcium, and potassium ions across the cell membrane. Various agents are known to interfere with the hERG gene, or otherwise block potassium channel operation, resulting in arrhythmia and potentially heart failure. […]
# To test for potassium channel interference, cardiac myocyte cells are provided in a monolayer adhered to a biological sample holder. […] As potassium ions are passed into and out of the myocytes by potassium channels, the fluorescence of the potassium selective optical ion sensor varies in a detectable fashion.
# FIGS. 10A and 10B are graphs charting the intensity of potassium ion-selective optical ion sensor fluorescence monitoring the activity of myocyte cells in a biological sample holder. […] The graph of FIG. 10A includes normalized raw fluorescence measurements, both observed and filtered. […]
smiles,measurement,value
O=C(CCCN1CCC(O)(c2ccc(Cl)cc2)CC1)c1ccc(F)cc1 [Haloperidol],reduction of intensity of fluorescence oscillations at 1.0 Hz (change of extracellular potassium concentration per beat),30%
